From ChEMBL document CHEMBL5126643, “Design and Characterization of Novel Small Molecule Activators of Excitatory Amino Acid Transporter 2” (ACS Med Chem Lett, 2022) come the findings set out here.

In data set [1] the target is Excitatory amino acid transporter 2 (Homo sapiens, UniProt P43004). Put plainly: Activation of human EAAT2 overexpressed in MDCK cells assessed as glutamate reuptake incubated for 5 mins by LCMS assay. In kind it is cell-based.
A short description of data set [2]: Lipophilicity, log P of the compound. The class given is physicochemical. As to conditions: octanol/water.
A short description of data set [3]: Tmax in Wistar rat plasma at 10 mg/kg, ip measured up to 24 hrs by LC-MS/MS analysis. The class given is ADME, organism-based.
Data set [4] can be described thus: AUC in Wistar rat brain at 10 mg/kg, po measured up to 24 hrs by LC-MS/MS analysis. More on the design: time < 24 hrs, dose 10 mg/kg, route po. The class given is ADME, organism-based. As to conditions: in vivo.
Data set [5] can be described thus: Half life in Wistar rat brain at 5 mg/kg, iv measured up to 24 hrs by LC-MS/MS analysis. In kind it is ADME, organism-based.
Data set [6] is described as follows: Tmax in Wistar rat brain at 10 mg/kg, po measured up to 24 hrs by LC-MS/MS analysis. In kind it is ADME, organism-based.
The nature of data set [7]: Cmax in Wistar rat plasma at 5 mg/kg, iv measured up to 24 hrs by LC-MS/MS analysis. The class given is ADME, organism-based. The arrangement: dose 5 mg/kg, time < 24 hrs, route iv.
The nature of data set [8]: AUC in Wistar rat plasma at 10 mg/kg, ip measured up to 24 hrs by LC-MS/MS analysis. As to conditions: in vivo. The arrangement: time < 24 hrs, dose 10 mg/kg, route ip. In kind it is ADME, organism-based.
Data set [9] in a line: Half life in Wistar rat plasma at 10 mg/kg, po measured up to 24 hrs by LC-MS/MS analysis. In kind it is ADME, organism-based.
Data set [10] in a line: AUC in Wistar rat brain at 10 mg/kg, ip measured up to 24 hrs by LC-MS/MS analysis. More on the design: dose 10 mg/kg, time < 24 hrs, route ip. The settings on record: in vivo. In kind it is ADME, organism-based.
The nature of data set [11]: AUC in Wistar rat plasma at 10 mg/kg, po measured up to 24 hrs by LC-MS/MS analysis. The settings on record: in vivo. The class given is ADME, organism-based. The arrangement: time < 24 hrs, dose 10 mg/kg, route po.
The nature of data set [12]: Half life in Wistar rat plasma at 5 mg/kg, iv measured up to 24 hrs by LC-MS/MS analysis. In kind it is ADME, organism-based.
Data set [13] in a line: Bioavailability in Wistar rat plasma at 10 mg/kg, ip measured up to 24 hrs by LC-MS/MS analysis. The class given is ADME, organism-based.
Data set [14] is described as follows: Cmax in Wistar rat brain at 5 mg/kg, iv measured up to 24 hrs by LC-MS/MS analysis. In kind it is ADME, organism-based. The arrangement: dose 5 mg/kg, time < 24 hrs, route iv.
Data set [15] is described as follows: Tmax in Wistar rat brain at 10 mg/kg, ip measured up to 24 hrs by LC-MS/MS analysis. In kind it is ADME, organism-based.
The nature of data set [16]: Cmax in Wistar rat brain at 10 mg/kg, ip measured up to 24 hrs by LC-MS/MS analysis. More on the design: time < 24 hrs, dose 10 mg/kg, route ip. The class given is ADME, organism-based.
A short description of data set [17]: Tmax in Wistar rat plasma at 10 mg/kg, po measured up to 24 hrs by LC-MS/MS analysis. The class given is ADME, organism-based.
The nature of data set [18]: Cmax in Wistar rat brain at 10 mg/kg, po measured up to 24 hrs by LC-MS/MS analysis. More on the design: dose 10 mg/kg, time < 24 hrs, route po. In kind it is ADME, organism-based.
The nature of data set [19]: Half life in Wistar rat brain at 10 mg/kg, ip measured up to 24 hrs by LC-MS/MS analysis. The class given is ADME, organism-based.
Data set [20] in a line: Half life in Wistar rat plasma at 10 mg/kg, ip measured up to 24 hrs by LC-MS/MS analysis. In kind it is ADME, organism-based.
A short description of data set [21]: Cmax in Wistar rat plasma at 10 mg/kg, ip measured up to 24 hrs by LC-MS/MS analysis. In kind it is ADME, organism-based. The arrangement: dose 10 mg/kg, time < 24 hrs, route ip.
Data set [22] in a line: AUC in Wistar rat plasma at 5 mg/kg, iv measured up to 24 hrs by LC-MS/MS analysis. More on the design: dose 5 mg/kg, time < 24 hrs, route iv. The settings on record: in vivo. In kind it is ADME, organism-based.
The nature of data set [23]: Cmax in Wistar rat plasma at 10 mg/kg, po measured up to 24 hrs by LC-MS/MS analysis. In kind it is ADME, organism-based. More on the design: dose 10 mg/kg, time < 24 hrs, route po.
Data set [24] in a line: AUC in Wistar rat brain at 5 mg/kg, iv measured up to 24 hrs by LC-MS/MS analysis. In kind it is ADME, organism-based. The arrangement: time < 24 hrs, dose 5 mg/kg, route iv. As to conditions: in vivo.
Data set [25] in a line: Oral bioavailability in Wistar rat plasma at 10 mg/kg measured up to 24 hrs by LC-MS/MS analysis. The class given is ADME, organism-based.
Data set [26] can be described thus: Tmax in Wistar rat brain at 5 mg/kg, iv measured up to 24 hrs by LC-MS/MS analysis. In kind it is ADME, organism-based.
A short description of data set [27]: Tmax in Wistar rat plasma at 5 mg/kg, iv measured up to 24 hrs by LC-MS/MS analysis. The class given is ADME, organism-based.
A short description of data set [28]: AUC in CD-1 mouse brain at 10 mg/kg, ip measured up to 8 hrs by LC-MS/MS analysis. The class given is ADME, organism-based. The arrangement: time < 8 hrs, dose 10 mg/kg, route ip. As to conditions: in vivo.
The nature of data set [29]: Primary phase half life in CD-1 mouse brain at 10 mg/kg, ip measured up to 8 hrs by LC-MS/MS analysis. The class given is ADME, organism-based. The settings on record: read-out: alphat1/2 (converted).
A short description of data set [30]: Primary phase half life in CD-1 mouse plasma at 10 mg/kg, ip measured up to 8 hrs by LC-MS/MS analysis. As to conditions: read-out: alphat1/2 (converted). In kind it is ADME, organism-based.
Data set [31] in a line: Cmax in CD-1 mouse plasma at 10 mg/kg, ip measured up to 8 hrs by LC-MS/MS analysis. More on the design: dose 10 mg/kg, time < 8 hrs, route ip. The class given is ADME, organism-based.
Data set [32] in a line: Tmax in CD-1 mouse brain at 10 mg/kg, ip measured up to 8 hrs by LC-MS/MS analysis. The class given is ADME, organism-based.
The nature of data set [33]: Tmax in CD-1 mouse plasma at 10 mg/kg, ip measured up to 8 hrs by LC-MS/MS analysis. The class given is ADME, organism-based.
Data set [34] in a line: Cmax in CD-1 mouse brain at 10 mg/kg, ip measured up to 8 hrs by LC-MS/MS analysis. In kind it is ADME, organism-based. More on the design: dose 10 mg/kg, time < 8 hrs, route ip.
Data set [35] is described as follows: AUC in CD-1 mouse plasma at 10 mg/kg, ip measured up to 8 hrs by LC-MS/MS analysis. In kind it is ADME, organism-based. The settings on record: in vivo. The arrangement: time < 8 hrs, dose 10 mg/kg, route ip.
Data set [36] is described as follows: Half life in Wistar rat brain at 10 mg/kg, po measured up to 24 hrs by LC-MS/MS analysis. The class given is ADME, organism-based.

Sequence of Excitatory amino acid transporter 2 (P43004 whole entry): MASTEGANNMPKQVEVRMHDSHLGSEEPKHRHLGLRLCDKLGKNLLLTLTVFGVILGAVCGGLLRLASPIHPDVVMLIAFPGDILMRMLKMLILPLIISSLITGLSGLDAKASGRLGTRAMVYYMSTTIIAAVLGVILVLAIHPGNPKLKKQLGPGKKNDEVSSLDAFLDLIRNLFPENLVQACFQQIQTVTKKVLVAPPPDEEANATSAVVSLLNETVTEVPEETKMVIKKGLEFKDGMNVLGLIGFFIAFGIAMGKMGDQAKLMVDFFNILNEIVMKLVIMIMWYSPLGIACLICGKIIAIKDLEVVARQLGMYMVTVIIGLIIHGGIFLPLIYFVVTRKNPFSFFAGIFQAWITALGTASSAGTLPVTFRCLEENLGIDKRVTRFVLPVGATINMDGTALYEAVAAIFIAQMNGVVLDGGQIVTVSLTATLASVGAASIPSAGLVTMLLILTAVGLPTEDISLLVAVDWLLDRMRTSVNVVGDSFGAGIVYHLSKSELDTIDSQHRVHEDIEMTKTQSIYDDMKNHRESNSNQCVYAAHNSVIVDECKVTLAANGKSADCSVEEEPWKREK

As usually defined, the EC50 is the midpoint of the concentration-response curve. In the case of `Cc1ccccc1CSc1ccc(-c2ccccn2)nn1`, in data set [1], the EC50 turned out to be 1830 nM.

The term logP denotes the decadic logarithm of the partition coefficient of the neutral form, usually between octanol and water. For the molecule `COc1ccc2[nH]c(=O)c(C(c3nnnn3CCc3ccccc3)N3CCN(C4CCCCC4)CC3)cc2c1` (stereo not drawn), in data set [2], the logP was more than 6.

By Tmax is commonly meant the time at which the peak concentration occurs. By Cmax is commonly meant the peak of the concentration-time curve. As usually defined, the bioavailability is dose-corrected exposure relative to a reference, in per cent. A higher bioavailability goes with much systemic uptake. As for `COc1ccc(NC(=O)C(=O)N2CCN(c3ccccc3)CC2)cc1`, the Tmax in [3] was 37.8 min; in data set [6], 1.38 h; in data set [15], 30 min; in data set [17], 3.25 h; in data set [26], 30 min; in [27] it was 30 min. In addition, the AUC was determined as 183 ng·h/g in [4]; 1073.21 ng·h/g in [8]; 429.85 ng·h/g in data set [10]; 321.93 ng·h/g in data set [11]; 919.43 ng·h/g in [22]; 443.23 ng·h/g in data set [24]. For the same molecule, the half-life in data set [5] was 91.2 min; in [9], 320 min; in data set [12], 365 min; in [19], 136 min; in data set [20], 373 min. The Cmax stood at 567 ng/g in [7]; 371 ng/g in data set [14]; 204 ng/g in [16]; 25 ng/g in data set [18]; 450 ng/g in data set [21]; 42.9 ng/g in data set [23]. Further, the bioavailability in data set [13] was 58.4%; in data set [25], 17.5%.

For `COc1ccc2[nH]c(=O)c(C(c3nnnn3CCc3ccccc3)N3CCN(c4cccc(C(F)(F)F)c4)CC3)cc2c1` (stereo not drawn), the AUC turned out to be 86 ng·h/g in [28] and 1339 ng·h/g in data set [35]. The half-life is 210 min in data set [29] and 180 min in data set [30]. Further, the Cmax in data set [31] is 717 ng/mL; in data set [34], 30 ng/mL. The Tmax in data set [32] and in [33] was 30 min each time. This molecule yielded a logP in [2] of more than 6.

Regarding `COc1ccc(NC(=O)C(=O)NCC(c2ccccc2)N2CCN(C)CC2)cc1` (stereo not drawn), the Tmax in data set [3] turned out to be 30 min; in data set [6], 0.88 h; in data set [15] it was 30 min; in data set [17], 0.875 h; in [26], 30 min; in [27], 30 min. The AUC in data set [4] amounted to 2816.8 ng·h/g; in data set [8] it was 536.768 ng·h/g; in data set [10] it was 4414.35 ng·h/g; in data set [11], 507.2 ng·h/g; in [22] it was 315.635 ng·h/g; in data set [24] it was 1959.7 ng·h/g. Moreover, the half-life in data set [5] is 61.8 min; in data set [9] it was 286 min; in [12] it was 39.1 min; in data set [36] it was 109 min; in data set [19], 97.2 min; in data set [20], 61 min. The Cmax in [7] is 307 ng/g; in [14], 1220 ng/g; in data set [16], 2460 ng/g; in data set [18], 1170 ng/g; in [21], 262 ng/g; in data set [23], 204 ng/g. Besides, the bioavailability in data set [13] is 85%; in data set [25] it was 80.3%.

Consider `CO/N=C(\C(=O)N[C@@H]1C(=O)N2C(C(=O)O)=C(CSc3nc(=O)c(=O)[nH]n3C)CS[C@H]12)c1csc(N)n1` [CEFTRIAXONE], for which the EC50 in [1] is more than 10000 nM.
